{"source": "patent US20230218618A1", "about": "“ADMINISTRATION OF SUMO-ACTIVATING ENZYME INHIBITOR AND ANTI-CD38 ANTIBODIES” (MILLENNIUM PHARMACEUTICALS, INC., priority 2020, published 2023)", "key": {"[1]": {"system": "NCI-H929 human multiple myeloma cell line", "test": "Study 5: NCI-H929 xenograft human multiple myeloma subcutaneous tumor model", "assay_type": "in vivo, SCID mice", "settings": "for Tumor growth compared to vehicle (pairwise comparison): I-263a 7.5 mg/kg BIW 2 weeks (p > 0.05), daratumumab 2.5, 7.5 or 20 mg/kg BIW 2 weeks alone or combined with I-263a (p < 0.001); for GRI%: vs vehicle", "protocol": "(§1) Low tumor volumes can cause problems with the data analysis, so all measurements below 25 cubic mm (including 0 values) were excluded from the analysis. After this exclusion step, the tumor volume was assumed to follow an exponential growth model. More specifically, for a given animal and treatment group,\n(§2) Pairwise comparisons were performed, where the mean growth rates were compared for various pairs of treatment conditions. The results were summarized using the growth rate inhibition (GRI). Suppose µT and µC are the mean tumor growth rates for the treatment and reference groups, respectively. Define\n(§3) Here, µAB, µA, µB, and µControl are the mean growth rates for the combination, drug A, drug B, and control groups, respectively. As before, µv is the mean tumor growth rate for the vehicle group, which in most cases is the same as the control group. The standard error of the synergy score was calculated as the square root of the sum of squared standard errors across the four groups. The degrees of freedom were estimated using the Welch-Satterthwaite equation. A hypothesis test was performed to determine if the synergy score differed from 0. P-values were calculated by dividing the synergy score by its standard error and tested against a t-distribution (two-tailed) with the above-calculated degrees of freedom. A P value of less than 0.05 is statistically significant.\n(§4) The combination results can be interpreted as follows. Statistically significant negative synergy scores indicate a synergistic combination (“Syn.”). Statistically significant positive synergy scores indicate a sub-additive combination (“Sub-add.”) when the combination performs better (i.e. has a lower growth rate) than the best performing single agent. Statistically significant positive synergy scores indicate an antagonistic combination (“Antag.”) when the combination performs worse than the best performing single agent. Scores that are not statistically significant should be considered additive (“Add.”).\nNCI-H929 is a human multiple myeloma cell line. A NCI-H929 human xenograft tumor model was generated by subcutaneous inoculation with 1.0 × 10^7 NCI-H929 cells (cell suspension) in 7 weeks old female SCID mice (Vital River Laboratory Animal Technology Co., Ltd, Beijing, China) in the flank. When the mean tumor volume reached approximately 180 mm^3, the animals were randomized into one vehicle control and seven treatment groups (n=10/group). Mice were then dosed with 20% HPβCD or Compound I-263a or daratumumab over a 14-day period. Tumor growth and body weight were measured twice per week during the treatment and post-treatment periods, and mice were humanely euthanized once they had reached their humane endpoint.\nA 1.5 mg/mL stock solution of I-263a was formulated weekly in 20% HPβCD and administered IV based on exact animal body weight on each day of treatment, using a dosing volume of 5 mL/kg body weight. Final dose I-263a received was 7.5 mg/kg. I-263a was administered on a BIW schedule for 2 weeks (Days 0, 3, 7, and 10). Daratumumab (anti-CD38 antibody) (Janssen Biotech, Inc., Horsham, PA) was stored at 4° C. according to manufacturer’s instructions. Final dose daratumumab received was 2.5 mg/kg, 7.5 mg/kg, and 20 mg/kg based on average body weight. Daratumumab was administered intraperitoneally (IP) using a 0.1 mL dosing volume, on a BIW schedule for 2 weeks (Days 0, 3, 7, and 10).\n(§5) Tumors were measured twice weekly using Vernier calipers. Tumor volumes were calculated using standard equation: V = W^2 × L/2, where V = volume, W = width, and L = length for the tumor. When mean tumor volumes reached approximately 180 mm^3, mice were randomized into control and treatment groups. Mice were randomized into 8 groups (n=8/group) and dosed with vehicle (20% HPβCD), I-263a, daratumumab, or the combination of I-263a plus daratumumab at doses and schedules as described above. Tumor size and body weight were measured twice a week for the duration of the study. […]"}, "[2]": {"system": "LP-1 human multiple myeloma cell line", "test": "Study 3: LP-1 xenograft human multiple myeloma subcutaneous tumor model", "assay_type": "in vivo, CB17 SCID mice", "settings": "for GRI%: vs vehicle", "protocol": "as §1, §2, §3, §4\nLP-1 is a human multiple myeloma cell line. A LP-1 human xenograft tumor model was generated by subcutaneous inoculation with […] LP-1 cells (cell suspension) in 7 weeks old female CB17 SCID mice (Charles River Laboratories, 251 Ballardvale St., Wilmington, MA) in the flank. When the mean tumor volume reached approximately 100 mm^3, the animals were randomized into one vehicle control and seven treatment groups (n=8/group). Mice were then dosed with 20% HPβCD or Compound I-263a or daratumumab over a 35-day period. Tumor growth and body weight were measured twice per week during the treatment and post-treatment periods, and mice were humanely euthanized once they had reached their humane endpoint.\nA 0.75 mg/mL stock solution of I-263a was formulated weekly in 20% HPβCD and administered IV based on an average body weight using a 0.2 mL dosing volume. Final dose I-263a received was 7.5 mg/kg. I-263a was administered on a BIW schedule for 5 weeks (Days 1, 4, 8, 11, 15, 18, 22, 25, 29 and 33). Daratumumab (anti-CD38 antibody) (Myoderm Medical Supplies, 48 E Main St., Norristown, PA 19401) was purchased at the beginning of the study and stored at 4° C. according to manufacturer’s instructions. Final dose daratumumab received was 2.5 mg/kg, 7.5 mg/kg, and 20 mg/kg based on average body weight. Daratumumab was administered intraperitoneally (IP) using a 0.1 mL dosing volume, on a BIW schedule for 5 weeks (Days 1, 4, 8, 11, 15, 18, 22, 25, 29 and 33).\nas §5, with “100” for “180”, “above.” for “above. Tumor size and body weight were measured twice a week for the duration of the study.”"}, "[3]": {"system": "RPMI-8226 human multiple myeloma cell line", "test": "Study 6: RPMI-8226 human multiple myeloma subcutaneous tumor model", "assay_type": "in vivo, SCID mice", "settings": "for Tumor growth compared to vehicle-treated tumors (pairwise comparison): I-263a 7.5 mg/kg BIW 2 weeks, daratumumab 2.5, 7.5 or 20 mg/kg BIW 2 weeks, or both, p > 0.05; for GRI%: vs vehicle"}, "[4]": {"settings": "I-263a 7.5 mg/kg BIW 5 weeks (p < 0.01), daratumumab 20 mg/kg (p < 0.01), I-263a 7.5 mg/kg BIW with daratumumab 2.5, 7.5 or 20 mg/kg (p < 0.001)"}}, "data": [{"molecule": "Cc1sc(C(=O)c2cncnc2N[C@@H]2C[C@H](COS(N)(=O)=O)[C@@H](O)C2)cc1[C@@H]1NCCc2ccc(Cl)cc21", "note": "[Compound I-263a, [(1R,2S,4R)-4-{[5-({4-[(1R)-7-chloro-1,2,3,4-tetrahydroisoquinolin-1-yl]-5-methyl-2-thienyl}carbonyl)pyrimidin-4-yl]amino}-2-hydroxycyclopentyl]methyl sulfamate]", "values": [{"measurement": "Tumor growth compared to vehicle (pairwise comparison)", "setting": "[1]", "result": "not significantly different from vehicle"}, {"measurement": "Tumor volume on Day 14 (± SEM)", "setting": "[1]; I-263a 7.5 mg/kg BIW IV", "result": "1763.8 ± 187.6"}, {"measurement": "GRI%", "setting": "[1]; I-263a 7.5 mg/kg BIW IV", "result": 6, "unit": "%"}, {"measurement": "Tumor growth compared to vehicle treated mice (pairwise comparison)", "setting": "[2]; [4]", "result": "significant tumor growth inhibition"}, {"measurement": "Tumor volume on Day 17 (± SEM)", "setting": "[2]; I-263a 7.5 mg/kg BIW IV", "result": "1043.3 ± 260.1"}, {"measurement": "GRI%", "setting": "[2]; I-263a 7.5 mg/kg BIW IV", "result": 15, "unit": "%"}, {"measurement": "Tumor growth compared to vehicle-treated tumors (pairwise comparison)", "setting": "[3]", "result": "not significantly different than vehicle-treated tumors"}, {"measurement": "Tumor volume on Day 20 (± SEM)", "setting": "[3]; I-263a 7.5 mg/kg BIW IV", "result": "1763.2 ± 213.2"}, {"measurement": "GRI%", "setting": "[3]; I-263a 7.5 mg/kg BIW IV", "result": -12, "unit": "%"}]}, {"molecule": "Daratumumab: immunoglobulin G1 kappa (IgG1κ) human monoclonal antibody against CD38 antigen", "values": [{"measurement": "Tumor volume on Day 14 (± SEM)", "setting": "[1]; Daratumumab 2.5 mg/kg BIW IP", "result": "999.5 ± 187.7"}, {"measurement": "GRI%", "setting": "[1]; Daratumumab 2.5 mg/kg BIW IP", "result": 37, "unit": "%"}, {"measurement": "Tumor volume on Day 14 (± SEM)", "setting": "[1]; Daratumumab 7.5 mg/kg BIW IP", "result": "838.3 ± 142.8"}, {"measurement": "GRI%", "setting": "[1]; Daratumumab 7.5 mg/kg BIW IP", "result": 45, "unit": "%"}, {"measurement": "Tumor volume on Day 14 (± SEM)", "setting": "[1]; Daratumumab 20 mg/kg BIW IP", "result": "656.2 ± 127.2"}, {"measurement": "GRI%", "setting": "[1]; Daratumumab 20 mg/kg BIW IP", "result": 54, "unit": "%"}, {"measurement": "Tumor growth compared to vehicle (pairwise comparison)", "setting": "[1]", "result": "significantly inhibited tumor growth curves"}, {"measurement": "Tumor volume on Day 17 (± SEM)", "setting": "[2]; Daratumumab 2.5 mg/kg BIW IP", "result": "988.8 ± 183.4"}, {"measurement": "GRI%", "setting": "[2]; Daratumumab 2.5 mg/kg BIW IP", "result": 16, "unit": "%"}, {"measurement": "Tumor volume on Day 17 (± SEM)", "setting": "[2]; Daratumumab 7.5 mg/kg BIW IP", "result": "1204.8 ± 190.1"}, {"measurement": "GRI%", "setting": "[2]; Daratumumab 7.5 mg/kg BIW IP", "result": 8, "unit": "%"}, {"measurement": "Tumor volume on Day 17 (± SEM)", "setting": "[2]; Daratumumab 20 mg/kg BIW IP", "result": "1078 ± 207.7"}, {"measurement": "GRI%", "setting": "[2]; Daratumumab 20 mg/kg BIW IP", "result": 10, "unit": "%"}, {"measurement": "Tumor growth compared to vehicle treated mice (pairwise comparison)", "setting": "[2]; [4]", "result": "significant tumor growth inhibition"}, {"measurement": "Tumor growth compared to vehicle treated mice (pairwise comparison)", "setting": "[2]; daratumumab 2.5 mg/kg or 7.5 mg/kg single agent, p > 0.05", "result": "not significantly different from vehicle treated mice"}, {"measurement": "Tumor volume on Day 20 (± SEM)", "setting": "[3]; Daratumumab 2.5 mg/kg BIW IP", "result": "1875.5 ± 170.1"}, {"measurement": "GRI%", "setting": "[3]; Daratumumab 2.5 mg/kg BIW IP", "result": -6, "unit": "%"}, {"measurement": "Tumor volume on Day 20 (± SEM)", "setting": "[3]; Daratumumab 7.5 mg/kg BIW IP", "result": "1510.7 ± 144.6"}, {"measurement": "GRI%", "setting": "[3]; Daratumumab 7.5 mg/kg BIW IP", "result": -2, "unit": "%"}, {"measurement": "Tumor volume on Day 20 (± SEM)", "setting": "[3]; Daratumumab 20 mg/kg BIW IP", "result": "1456.6 ± 166.6"}, {"measurement": "GRI%", "setting": "[3]; Daratumumab 20 mg/kg BIW IP", "result": 11, "unit": "%"}, {"measurement": "Tumor growth compared to vehicle-treated tumors (pairwise comparison)", "setting": "[3]", "result": "not significantly different than vehicle-treated tumors"}]}]}
